Key:
Assay in all cases: relative viability (nuclei count vs DMSO), 5 days (fraction); higher = more cells survive
[1] = compound: COc1cc2ncn(-c3cc(OCc4ccccc4C(F)(F)F)c(C(N)=O)s3)c2cc1OC + Nc1nc2[nH]cc(CCc3ccc(C(=O)N[C@@H](CCC(=O)O)C(=O)O)cc3)c2c(=O)[nH]1 [Pemetrexed] (partner 0.2 µM)
Method in brief: (§1)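 Lung cancer cell lines in 1536-well plates were dosed by pin tool the day after seeding, either with one drug alone or with a fixed anchor-drug dose plus five library-drug doses (not always all listed) in √10 steps. After 5 days, cells were fixed and their nuclei stained in one step (final 0.05% Triton X-100, 1% formaldehyde, 1 ug/ml Hoechst), then counted on 4× images. Relative viability is the nuclei count in treated wells divided by that in vehicle wells. Values are medians of duplicate plates.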

[2] = compound: COc1cc2ncn(-c3cc(OCc4ccccc4C(F)(F)F)c(C(N)=O)s3)c2cc1OC + O=C(CCCCCCC(=O)Nc1ccccc1)NO [Vorinostat] (partner 1 µM)
Method in brief: as §1

[3] = compound: COc1cc2ncn(-c3cc(OCc4ccccc4C(F)(F)F)c(C(N)=O)s3)c2cc1OC + CC1(C)CCC(c2ccc(Cl)cc2)=C(CN2CCN(c3ccc(C(=O)NS(=O)(=O)c4ccc(N[C@H](CCN5CCOCC5)CSc5ccccc5)c(S(=O)(=O)C(F)(F)F)c4)cc3)CC2)C1 [Navitoclax] (partner 0.5 µM)
Method in brief: as §1

[4] = compound: COc1cc2ncn(-c3cc(OCc4ccccc4C(F)(F)F)c(C(N)=O)s3)c2cc1OC + C[C@]1(O)C[C@@H](c2nc(-c3ccc4ccc(-c5ccccc5)nc4c3)c3c(N)nccn32)C1 [Linsitinib] (partner 1 µM)
Method in brief: as §1

Cell Line | relative viability ([1]; first compound 0.05 µM) | relative viability ([1]; first compound 0.1581 µM) | relative viability ([1]; first compound 0.5 µM) | relative viability ([1]; first compound 1.581 µM) | relative viability ([1]; first compound 5 µM) | relative viability ([2]; first compound 0.05 µM) | relative viability ([2]; first compound 0.1581 µM) | relative viability ([2]; first compound 0.5 µM) | relative viability ([2]; first compound 1.581 µM) | relative viability ([2]; first compound 5 µM) | relative viability ([3]; first compound 0.05 µM) | relative viability ([3]; first compound 0.1581 µM) | relative viability ([3]; first compound 0.5 µM) | relative viability ([3]; first compound 1.581 µM) | relative viability ([3]; first compound 5 µM) | relative viability ([4]; first compound 0.05 µM) | relative viability ([4]; first compound 0.1581 µM) | relative viability ([4]; first compound 0.5 µM) | relative viability ([4]; first compound 1.581 µM) | relative viability ([4]; first compound 5 µM)
LOU-NH91 | 0.344 | 0.357 | 0.362 | 0.291 | 0.264 | 0.903 | 1.04 | 0.683 | 0.365 | 0.29 | 0.715 | 0.816 | 0.592 | 0.445 | 0.399 | 0.94 | 1.05 | 0.824 | 0.526 | 0.595
LU99A | 0.204 | 0.169 | 0.204 | 0.154 | 0.146 | 0.445 | 0.401 | 0.196 | 0.123 | 0.115 | 0.87 | 0.786 | 0.434 | 0.169 | 0.124 | 0.502 | 0.522 | 0.224 | 0.212 | 0.161
LXF-289 | 0.897 | 0.674 | 0.597 | 0.184 | 0.0849 | 0.78 | 0.622 | 0.421 | 0.11 | 0.0692 | 0.852 | 0.72 | 0.192 | 0.104 | 0.0566 | 0.884 | 0.762 | 0.158 | 0.0992 | 0.0585
NCI-H23 | 0.648 | 0.583 | 0.208 | 0.184 | 0.112 | 0.519 | 0.284 | 0.0883 | 0.121 | 0.0755 | 0.913 | 0.773 | 0.284 | 0.157 | 0.103 | 0.655 | 0.371 | 0.274 | 0.113 | 0.131
NCI-H322M | 0.682 | 0.707 | 0.524 | 0.429 | 0.352 | 0.933 | 0.914 | 0.78 | 0.522 | 0.428 | 1.24 | 1.1 | 0.863 | 0.549 | 0.629 | 0.893 | 0.856 | 0.748 | 0.401 | 0.408
NCI-H441 | 0.248 | 0.27 | 0.189 | 0.148 | 0.158 | 0.446 | 0.827 | 0.195 | 0.174 | 0.19 | 0.623 | 0.405 | 0.233 | 0.151 | 0.164 | 0.395 | 0.315 | 0.205 | 0.152 | 0.149
NCI-H460 | 0.0574 | 0.0651 | 0.0638 | 0.0225 | 0.0159 | 0.745 | 0.723 | 0.0471 | 0.0166 | 0.0169 | 1.01 | 0.917 | 0.144 | 0.0132 | 0.0107 | 0.836 | 0.832 | 0.0599 | 0.0112 | 0.0063
NCI-H520 | 0.301 | 0.663 | 0.247 | 0.204 | 0.171 | 0.343 | 0.621 | 0.215 | 0.179 | 0.183 | 1.04 | 1.18 | 0.454 | 0.201 | 0.162 | 0.964 | 0.957 | 0.477 | 0.166 | 0.154
NCI-H596 | 0.559 | 0.463 | 0.454 | 0.359 | 0.337 | 0.598 | 0.405 | 0.515 | 0.246 | 0.162 | 0.782 | 0.869 | 0.58 | 0.262 | 0.16 | 1.08 | 1.1 | 0.87 | 0.655 | 0.351
NCI-H647 | 0.179 | 0.176 | 0.0943 | 0.06 | 0.0757 | 0.326 | 0.489 | 0.113 | 0.0523 | 0.0497 | 1.17 | 1.08 | 0.245 | 0.0619 | 0.0475 | 1.07 | 1.09 | 0.267 | 0.101 | 0.126
NCI-H838 | 0.216 | 0.278 | 0.221 | 0.143 | 0.114 | 0.577 | 0.801 | 0.477 | 0.13 | 0.132 | 1.2 | 1.23 | 0.733 | 0.15 | 0.135 | 1.15 | 1.04 | 0.873 | 0.178 | 0.105
NCI-H1355 | 1.12 | 0.924 | 0.88 | 0.223 | 0.141 | 0.592 | 0.624 | 0.457 | 0.154 | 0.13 | 1.04 | 0.914 | 0.536 | 0.177 | 0.136 | 0.857 | 0.863 | 0.617 | 0.203 | 0.156
NCI-H1395 | 0.761 | 0.828 | 0.663 | 0.395 | 0.27 | 0.711 | 0.688 | 0.466 | 0.354 | 0.25 | 1.17 | 1.17 | 0.611 | 0.447 | 0.384 | 0.967 | 1 | 0.593 | 0.395 | 0.388
NCI-H1437 | 0.317 | 0.32 | 0.221 | 0.232 | 0.179 | 0.717 | 0.779 | 0.367 | 0.334 | 0.326 | 1.13 | 1.07 | 0.151 | 0.13 | 0.119 | 1.09 | 1.01 | 0.11 | 0.1 | 0.09

Source: the supplement of paper PMC10307832
